Assay results as given in patent US20150118229A1, “JAK1 SELECTIVE INHIBITOR AND USES THEREOF” (ABBVIE INC., priority 2013, published 2015).
“Also recorded” adds a separate entry of the source. Where two headings read alike, the source gives them in different places.

Assays:
[1] = biological target: MATEK (Homo sapiens, UniProt Q86VL8); test: Transporter inhibition, MATEK
[2] = biological target: CYP3A4 (midazolam/testosterone) (Homo sapiens, UniProt P08684); test: CYP inhibition in human liver microsomes, CYP3A4
[3] = 9-month (39 weeks) GLP chronic oral toxicity study in dogs; details: both sexes, beagle, in vivo, dog, 9 months (39 weeks)
Protocol: The GLP-compliant studies each included 4 weeks of oral dosing followed by a 4-week recovery period in both rats and dogs followed by GLP-compliant chronic toxicity studies in rats (6 months of oral dosing) and dogs (9 months of oral dosing).
A subsequent GLP-compliant 9-month chronic dog study was conducted in beagle dogs at dosages of 0, 0.1, 0.5, and 1.5 mg/kg/day by daily oral capsule administration. No Compound 1-related changes in food consumption or body weights were observed during the dosing period.

[4] = biological target: T1, BCRP (Homo sapiens, UniProt Q9UNQ0); test: BCRP inhibition; type: in vitro ADME
T1 construct: expressed in transfected cells; host or cells: MDCKII-BCRP

[5] = Human PK, multiple ascending dose Study M13-845 Substudy 1; type: in vivo; details: for AUC: human, in vivo, oral
[6] = system: peripheral NK cell counts; test: Peripheral NK cell counts in healthy rats; type: in vivo, rat
Text: The correlation of this effect with ex vivo cytokine signaling inhibition is shown in the right panel of FIG. 6. These measurements correlated well, confirming the Jak dependency of the NK cell count endpoint.
To establish the relationship between changes in NK cell counts and nonclinical efficacy, the changes in NK cell counts were compared with decreases in rat AIA disease activity per unit exposure.

[7] = Definitive embryofetal development toxicity study in rabbits; type: in vivo, New Zealand White rabbits; details: rabbit
Text: One additional group of 20 time-mated females served as the control and received the vehicle, 0.2% hydroxypropyl methylcellulose (HPMC, high viscosity) in deionized water.

[8] = biological target: OCT2 (Homo sapiens, UniProt O15244); test: Transporter inhibition, OCT2; details: up to 30 μM
[9] = system: IL-6 signaling; test: Whole blood assay IL-6 pSTAT3 CD14+; type: cell-based
[10] = Human PK in healthy Japanese and Chinese subjects, Study M13-543; type: in vivo; details: for AUC12/dose / Cmax/dose / Ctrough/Dose: Day 14, mean (% CV); for half-life / AUC / concentration at 14 day / AUC(0-t): human, plasma, oral; for AUC: read-out: AUC12; for concentration at 14 day: read-out: Ctrough; for AUC(0-t): mean (% CV)
Text: Two additional subjects were assigned to each dose level as placebo control.

[11] = biological target: Rock1 (Homo sapiens, UniProt Q13464); test: Kinase panel, Rock1; type: biochemical
[12] = Clinical safety, Study M13-401
[13] = Metabolic stability in hepatocytes, monkey; type: in vitro ADME; details: read-out: intrinsic clearance in hepatocytes (converted)
[14] = biological target: OATP1B1 (Homo sapiens, UniProt Q9Y6L6); test: Transporter inhibition, OATP1B1
[15] = Pivotal 4-week GLP oral toxicity study in rats; details: rat, 4 weeks; leading number = dose mg/kg/day
Protocol: The 4-week rat study was conducted at dose levels of 0, 10, 50, 100, and 200 mg/kg/day by daily oral administration (gavage). […] The cause of death was not determined for animals that died.

[16] = biological target: MATE1 (Homo sapiens, UniProt Q96FL8); test: Transporter inhibition, MATE1
[17] = Plasma protein binding, rat; type: in vitro ADME
[18] = Metabolic stability in liver microsomes, monkey; type: in vitro ADME; details: read-out: intrinsic clearance in liver microsomes (scaled)
[19] = Plasma protein binding, human; type: in vitro ADME
[20] = 12 mg BID, Day 14, mean (% CV), Western subjects, listed as Comp. 1
[21] = 24 mg BID, Day 14, mean (% CV), Western subjects, listed as Comp. 1
[22] = Japanese, 6 & 24 mg single doses
[23] = 18 mg, Chinese, 18 mg BID, Day 14
[24] = 18 mg, Japanese, 18 mg BID, Day 14

CYP3A4 (midazolam/testosterone), sequence (P08684 whole entry): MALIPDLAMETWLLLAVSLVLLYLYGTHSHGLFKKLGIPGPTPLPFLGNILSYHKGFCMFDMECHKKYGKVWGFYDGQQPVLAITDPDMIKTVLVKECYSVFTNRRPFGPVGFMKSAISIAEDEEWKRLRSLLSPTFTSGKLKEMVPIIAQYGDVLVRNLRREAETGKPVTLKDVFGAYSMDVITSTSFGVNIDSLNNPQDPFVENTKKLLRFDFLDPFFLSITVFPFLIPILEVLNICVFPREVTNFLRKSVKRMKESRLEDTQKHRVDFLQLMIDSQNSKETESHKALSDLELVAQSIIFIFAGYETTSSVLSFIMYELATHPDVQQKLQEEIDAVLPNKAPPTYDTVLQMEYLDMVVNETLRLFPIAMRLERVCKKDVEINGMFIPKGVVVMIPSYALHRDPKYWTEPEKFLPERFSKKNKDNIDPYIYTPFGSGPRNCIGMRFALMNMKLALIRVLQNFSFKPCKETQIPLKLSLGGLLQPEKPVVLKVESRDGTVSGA
MATE1, sequence (Q96FL8 whole entry): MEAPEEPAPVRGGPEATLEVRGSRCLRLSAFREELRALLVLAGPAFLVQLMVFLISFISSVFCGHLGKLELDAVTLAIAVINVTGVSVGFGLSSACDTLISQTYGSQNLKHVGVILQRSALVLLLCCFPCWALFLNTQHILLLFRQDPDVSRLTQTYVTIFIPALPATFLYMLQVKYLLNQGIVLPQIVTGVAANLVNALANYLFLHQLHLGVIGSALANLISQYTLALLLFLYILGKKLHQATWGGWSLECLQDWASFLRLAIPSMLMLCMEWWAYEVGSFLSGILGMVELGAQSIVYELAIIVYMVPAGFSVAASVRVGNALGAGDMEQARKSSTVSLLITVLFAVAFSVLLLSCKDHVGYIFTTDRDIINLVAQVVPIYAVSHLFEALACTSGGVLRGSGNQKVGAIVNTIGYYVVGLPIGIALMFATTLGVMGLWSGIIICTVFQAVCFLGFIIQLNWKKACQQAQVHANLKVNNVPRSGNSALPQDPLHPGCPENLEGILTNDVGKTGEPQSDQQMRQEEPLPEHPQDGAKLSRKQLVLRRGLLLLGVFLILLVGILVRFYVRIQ
MATEK, sequence (Q86VL8 1-566 isoform Q86VL8-3): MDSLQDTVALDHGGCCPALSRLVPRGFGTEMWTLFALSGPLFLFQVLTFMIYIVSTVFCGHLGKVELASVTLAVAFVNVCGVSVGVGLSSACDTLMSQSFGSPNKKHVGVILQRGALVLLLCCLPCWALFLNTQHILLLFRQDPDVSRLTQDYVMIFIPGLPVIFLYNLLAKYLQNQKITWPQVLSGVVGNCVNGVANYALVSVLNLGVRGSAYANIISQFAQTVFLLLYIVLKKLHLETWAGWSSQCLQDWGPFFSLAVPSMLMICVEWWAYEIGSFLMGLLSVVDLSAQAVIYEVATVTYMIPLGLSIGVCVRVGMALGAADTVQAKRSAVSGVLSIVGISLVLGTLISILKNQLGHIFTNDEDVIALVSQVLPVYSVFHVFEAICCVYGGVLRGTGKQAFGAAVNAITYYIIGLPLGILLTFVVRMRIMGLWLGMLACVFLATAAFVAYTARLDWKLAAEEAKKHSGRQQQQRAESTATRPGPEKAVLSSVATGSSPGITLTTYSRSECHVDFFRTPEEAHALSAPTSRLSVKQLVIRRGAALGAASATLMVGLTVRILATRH
OATP1B1, sequence (Q9Y6L6 whole entry): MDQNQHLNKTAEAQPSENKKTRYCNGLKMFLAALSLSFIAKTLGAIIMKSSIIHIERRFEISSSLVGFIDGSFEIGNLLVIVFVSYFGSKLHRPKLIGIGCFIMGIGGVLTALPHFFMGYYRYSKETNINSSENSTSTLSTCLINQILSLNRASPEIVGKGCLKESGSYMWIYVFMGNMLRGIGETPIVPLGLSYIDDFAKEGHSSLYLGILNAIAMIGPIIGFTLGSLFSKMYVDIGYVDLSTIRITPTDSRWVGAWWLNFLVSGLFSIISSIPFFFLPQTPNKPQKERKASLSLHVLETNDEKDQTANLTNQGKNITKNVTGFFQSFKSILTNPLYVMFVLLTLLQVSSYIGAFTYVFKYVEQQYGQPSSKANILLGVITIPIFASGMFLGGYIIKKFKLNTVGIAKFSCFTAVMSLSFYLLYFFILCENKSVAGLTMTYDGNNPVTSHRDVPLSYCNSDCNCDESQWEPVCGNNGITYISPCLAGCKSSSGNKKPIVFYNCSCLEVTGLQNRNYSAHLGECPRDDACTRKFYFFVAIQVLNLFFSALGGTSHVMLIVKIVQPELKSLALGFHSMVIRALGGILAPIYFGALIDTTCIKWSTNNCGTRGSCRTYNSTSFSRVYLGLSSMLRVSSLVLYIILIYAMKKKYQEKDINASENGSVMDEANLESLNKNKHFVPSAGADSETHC
T1 sequence (Q9UNQ0 whole entry): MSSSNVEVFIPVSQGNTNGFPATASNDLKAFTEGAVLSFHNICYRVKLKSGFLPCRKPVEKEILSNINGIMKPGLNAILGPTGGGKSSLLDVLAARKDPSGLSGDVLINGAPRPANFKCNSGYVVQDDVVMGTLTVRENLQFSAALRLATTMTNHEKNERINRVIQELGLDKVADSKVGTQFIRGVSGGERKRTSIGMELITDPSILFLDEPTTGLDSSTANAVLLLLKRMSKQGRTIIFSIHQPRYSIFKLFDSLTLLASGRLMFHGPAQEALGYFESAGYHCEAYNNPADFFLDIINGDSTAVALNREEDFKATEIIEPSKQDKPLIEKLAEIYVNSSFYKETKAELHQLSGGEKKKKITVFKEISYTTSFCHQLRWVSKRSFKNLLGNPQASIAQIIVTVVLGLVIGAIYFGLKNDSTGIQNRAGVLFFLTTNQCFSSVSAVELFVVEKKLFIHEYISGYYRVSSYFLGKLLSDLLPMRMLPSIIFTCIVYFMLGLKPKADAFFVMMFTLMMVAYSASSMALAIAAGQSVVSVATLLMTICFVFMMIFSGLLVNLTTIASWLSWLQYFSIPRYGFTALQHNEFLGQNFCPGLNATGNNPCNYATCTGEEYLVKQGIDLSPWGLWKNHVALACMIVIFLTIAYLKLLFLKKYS
Rock1, sequence (Q13464 whole entry, species assumed): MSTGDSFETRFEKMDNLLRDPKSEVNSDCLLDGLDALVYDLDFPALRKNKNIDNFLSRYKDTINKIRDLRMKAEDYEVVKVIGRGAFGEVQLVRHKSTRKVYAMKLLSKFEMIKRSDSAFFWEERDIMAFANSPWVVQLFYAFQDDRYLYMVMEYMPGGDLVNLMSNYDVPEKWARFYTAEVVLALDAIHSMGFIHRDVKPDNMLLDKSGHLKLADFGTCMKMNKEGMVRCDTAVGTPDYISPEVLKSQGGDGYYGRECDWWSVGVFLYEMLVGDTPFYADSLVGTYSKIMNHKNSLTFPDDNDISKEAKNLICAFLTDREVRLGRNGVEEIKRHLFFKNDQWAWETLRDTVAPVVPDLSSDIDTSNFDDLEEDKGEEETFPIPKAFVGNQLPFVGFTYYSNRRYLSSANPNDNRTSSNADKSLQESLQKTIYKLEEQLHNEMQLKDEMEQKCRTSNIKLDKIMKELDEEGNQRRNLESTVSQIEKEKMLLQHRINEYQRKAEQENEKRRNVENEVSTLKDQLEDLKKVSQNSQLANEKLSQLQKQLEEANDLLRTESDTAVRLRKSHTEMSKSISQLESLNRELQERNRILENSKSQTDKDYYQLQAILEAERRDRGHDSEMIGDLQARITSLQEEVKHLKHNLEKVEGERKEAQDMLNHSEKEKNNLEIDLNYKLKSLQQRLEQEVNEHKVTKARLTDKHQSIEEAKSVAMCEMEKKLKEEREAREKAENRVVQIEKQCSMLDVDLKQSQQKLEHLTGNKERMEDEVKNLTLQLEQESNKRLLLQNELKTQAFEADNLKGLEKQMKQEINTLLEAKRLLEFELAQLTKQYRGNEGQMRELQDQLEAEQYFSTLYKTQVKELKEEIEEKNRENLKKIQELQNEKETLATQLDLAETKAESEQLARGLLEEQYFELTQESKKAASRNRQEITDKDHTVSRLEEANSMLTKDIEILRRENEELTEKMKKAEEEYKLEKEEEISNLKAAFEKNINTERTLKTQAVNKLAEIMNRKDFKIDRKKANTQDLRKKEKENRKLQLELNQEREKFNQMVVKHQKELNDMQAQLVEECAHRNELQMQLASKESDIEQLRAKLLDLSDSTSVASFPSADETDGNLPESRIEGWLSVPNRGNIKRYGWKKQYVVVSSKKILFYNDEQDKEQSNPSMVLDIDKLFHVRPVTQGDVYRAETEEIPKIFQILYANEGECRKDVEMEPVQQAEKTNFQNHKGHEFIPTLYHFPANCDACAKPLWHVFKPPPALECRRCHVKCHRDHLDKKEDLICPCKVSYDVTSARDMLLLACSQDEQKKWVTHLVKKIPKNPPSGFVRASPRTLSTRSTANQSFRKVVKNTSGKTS
OCT2, sequence (O15244 whole entry): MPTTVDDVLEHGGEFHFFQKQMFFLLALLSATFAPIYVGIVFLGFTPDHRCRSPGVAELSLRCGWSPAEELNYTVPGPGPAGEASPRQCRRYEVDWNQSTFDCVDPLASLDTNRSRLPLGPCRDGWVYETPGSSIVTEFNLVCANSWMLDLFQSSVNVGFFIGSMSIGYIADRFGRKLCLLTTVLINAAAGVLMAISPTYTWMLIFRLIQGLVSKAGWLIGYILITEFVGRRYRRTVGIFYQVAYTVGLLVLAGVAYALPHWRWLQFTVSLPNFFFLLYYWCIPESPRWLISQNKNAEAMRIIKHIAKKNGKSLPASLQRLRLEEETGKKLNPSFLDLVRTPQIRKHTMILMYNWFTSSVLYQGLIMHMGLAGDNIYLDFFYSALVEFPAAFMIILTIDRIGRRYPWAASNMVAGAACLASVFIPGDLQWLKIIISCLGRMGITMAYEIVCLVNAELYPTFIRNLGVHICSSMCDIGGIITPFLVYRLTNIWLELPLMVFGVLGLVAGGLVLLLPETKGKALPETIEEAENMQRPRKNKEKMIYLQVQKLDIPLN

## CC[C@@H]1CN(C(=O)NCC(F)(F)F)C[C@@H]1c1cnc2cnc3[nH]ccc3n12 [Compound 1, (3S,4R)-3-ethyl-4-(3H-imidazo[1,2-a]pyrrolo[2,3-e]pyrazin-8-yl)-N-(2,2,2-trifluoroethyl)pyrrolidine-1-carboxamide]
[1]
  IC50: > 15 µM
[2]; human liver microsomes
  time-dependent inhibition of CYP3A4: No obvious time-dependent inhibition
[2]; up to 30 μM
  inhibition of CYP3A4 (midazolam/testosterone): did not inhibit; also recorded: not an inhibitor
[3]
  NOAEL at 9 months: 1.5 mg/kg/day
[4]
  IC50: 126 µM
[5]; 3 mg BID, Day 1
  AUC12/dose: 25.1 ng·h/mL/mg
  C12/dose: 0.32 ng/mL/mg
  Cmax/dose: 6.33 ng/mL/mg
[5]; 3 mg BID, Day 14
  AUC12/dose: 26.1 ng·h/mL/mg
  Cmax/dose: 6.16 ng/mL/mg
  Fe %, unchanged drug recovered in urine: 18.8%
[5]; 6 mg BID, Day 1
  AUC12/dose: 22.3 ng·h/mL/mg
  C12/dose: 0.30 ng/mL/mg
  Cmax/dose: 4.91 ng/mL/mg
[5]; 6 mg BID, Day 14
  AUC12/dose: 23.1 ng·h/mL/mg
  Cmax/dose: 4.80 ng/mL/mg
  Fe %, unchanged drug recovered in urine: 18.7%
[5]; 12 mg BID, Day 1
  AUC12/dose: 22.5 ng·h/mL/mg
  C12/dose: 0.33 ng/mL/mg
  Cmax/dose: 4.84 ng/mL/mg
[5]; 12 mg BID, Day 14
  Fe %, unchanged drug recovered in urine: 21.4%
[5]; [20]
  AUC12/dose: 22.6 ng·h/mL/mg
  Cmax/dose: 4.80 ng/mL/mg
[5]; 24 mg BID, Day 1
  AUC12/dose: 22.5 ng·h/mL/mg
  C12/dose: 0.32 ng/mL/mg
  Cmax/dose: 5.25 ng/mL/mg
[5]; 24 mg BID, Day 14
  Fe %, unchanged drug recovered in urine: 18.7%
[5]; [21]
  AUC12/dose: 22.0 ng·h/mL/mg
  Cmax/dose: 4.95 ng/mL/mg
[5]; 3 mg, 3 mg BID, Day 1, mean, read-out: AUC12
  AUC: 75.3 ng·h/mL
[5]; 3 mg, 3 mg BID, Day 14, mean, read-out: AUC12
  AUC: 78.3 ng·h/mL
[5]; 6 mg, 6 mg BID, Day 14, mean, read-out: AUC12
  AUC: 138 ng·h/mL
[5]; 6 mg, AUC12, 6 mg BID, Day 1, mean, heading: AUC12
  AUC: 134 ng·h/mL
[5]; 12 mg, 12 mg BID, Day 1, mean, read-out: AUC12
  AUC: 270 ng·h/mL
[5]; 12 mg, 12 mg BID, Day 14, mean, read-out: AUC12
  AUC: 271 ng·h/mL
[5]; 24 mg, 24 mg BID, Day 1, mean, read-out: AUC12
  AUC: 540 ng·h/mL
[5]; 24 mg, 24 mg BID, Day 14, mean, read-out: AUC12
  AUC: 529 ng·h/mL
[6]; over the efficacious exposure range, rat
  effects on peripheral NK cell counts: less than that of Tofacitinib
[6]; over the intended clinical exposure range, on the basis of rat models
  predicted maximum decrease of NK cell counts: approximately 40%
[6]; rat
  NK Counts (exposure): 290 ng·h/mL
  NK cell count decrease at about 60% efficacy (inhibition of paw swelling): ~25%
[7]; 2.5 and 10 mg/kg/day
  maternal and fetal examinations: no Compound 1-related effects
[7]; oral, GD 7-19
  NOEL: NOEL = 10 mg/kg/day
[8]
  inhibition of OCT2 uptake: No significant inhibition
[9]; read-out: IL-6 (pSTAT3, CD14+)
  IC50: 17 nM
[9]; whole blood, read-out: IC50 IL-6 pSTAT3 CD14+
  IC50: 17 nM
[10]; Chinese, 18 mg BID, Day 14
  CL/F: 39.0 L/h
[10]; Chinese, 18 mg BID
  AUC12/dose: 25.9 ng·h/mL/mg
  Cmax/dose: 6.57 ng/mL/mg
  Ctrough/Dose: 0.43 ng/mL/mg
[10]; Japanese, 3 mg single dose
  AUC lower than previously observed in Western subjects: 14%
  Cmax lower than previously observed in Western subjects: 22%
[10]; Japanese, 18 mg BID, Day 14
  CL/F: 35.2 L/h
[10]; Japanese, 18 mg BID
  AUC12/dose: 29.0 ng·h/mL/mg
  Cmax/dose: 7.08 ng/mL/mg
  Ctrough/Dose: 0.48 ng/mL/mg
[10]; [22]
  AUC higher than previously observed in Western subjects: 16-18%
  Cmax higher than previously observed in Western subjects: 9%
[10]; 6 mg, Japanese, single dose 6 mg, harmonic mean (pseudo % CV), not a robust estimate, read-out: t1/2 (converted)
  half-life: 330 min
[10]; 18 mg, Chinese, 18 mg BID, Day 1, mean (% CV)
  AUC: 410 ng·h/mL
[10]; [23]
  AUC: 466 ng·h/mL
  concentration at 14 day: 7.7 ng/mL
[10]; 18 mg, Japanese, 18 mg BID, Day 1, mean (% CV)
  AUC: 440 ng·h/mL
[10]; 18 mg, Japanese, 18 mg BID, Day 14, harmonic mean (pseudo % CV), read-out: t1/2 (converted)
  half-life: 571 min
[10]; [24]
  AUC: 522 ng·h/mL
  concentration at 14 day: 8.61 ng/mL
[10]; Japanese, Chinese, and Western healthy subjects, read-out: terminal t1/2
  half-life: 420 to 570 min
[10]; Japanese, single dose 3 mg
  AUC(0-t): 87.9 ng·h/mL
[10]; Japanese, single dose 6 mg
  AUC(0-t): 185 ng·h/mL
[10]; Japanese, single dose 24 mg
  AUC(0-t): 722 ng·h/mL
[10]; multiple BID dosing
  dose-normalized AUC and Ctrough higher in Asians than Westerns: approximately 20%
  dose-normalized Cmax higher in Asians than Westerns: approximately 40%
[11]
  IC50: 550 nM
[12]; FIH study, through highest single dose of 48 mg
  effects on blood pressure and heart rate: no effects
[12]; Study M13-401
  subjects meeting predefined criteria for potentially clinically significant QT or QTcF interval: No subjects
[12]; Study M13-401 Substudy 1 and 2
  adverse events severe, serious, or fatal: None
[12]; healthy volunteers, single doses 1 to 48 mg and 3, 6, 12, 24 mg twice daily 14 days
  dose-limiting toxicities: no dose-limiting toxicities
[13]
  CLint scaled at 1 μM: 6.88 mL/min/kg
[14]
  IC50: 48 µM
[15]
  Adverse Findings: ≧100: Mortality
[16]
  IC50: 11 µM
[17]
  fraction unbound: 0.36
[18]
  CLint scaled at 0.5 μM: < 26.7 mL/min/kg
[19]
  fraction unbound: 0.53
